Assay results taken from PubChem BioAssay (NCI).
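How tested: cells in 96-well plates exposed to compound for 48 hours at five concentrations. TGI marks complete inhibition of growth.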

Assays:
Assay in all cases: growth of human tumour cells (NCI), 48 h
[1] = test system: HCT-116 colon
[2] = test system: RPMI-8226 leukemia
[3] = test system: NCI-H226 lung
[4] = test system: MDA-MB-435
[5] = test system: KM12 colon
[6] = test system: 786-0 renal
[7] = test system: U251 CNS
[8] = test system: SK-MEL-2 melanoma
[9] = test system: A498 renal
[10] = test system: CAKI-1 renal
[11] = test system: MDA-N
[12] = test system: HL-60(TB) leukemia
[13] = test system: HT29 colon
[14] = test system: OVCAR-3 ovarian
[15] = test system: HS 578T breast
[16] = test system: UACC-257 melanoma
[17] = test system: DU-145 prostate
[18] = test system: ACHN renal
[19] = test system: MDA-MB-231 breast
[20] = test system: SF-295 CNS
[21] = test system: HOP-62 NSCLC
[22] = test system: LOX IMVI melanoma
[23] = test system: NCI-H460 lung
[24] = test system: PC-3 prostate
[25] = test system: NCI-H23 lung
[26] = test system: UO-31 renal
[27] = test system: IGROV1 ovarian
[28] = test system: COLO 205 colon
[29] = test system: TK-10 renal
[30] = test system: MOLT-4 leukemia
[31] = test system: UACC-62 melanoma
[32] = test system: HOP-92 NSCLC
[33] = test system: NCI-H522 lung
[34] = test system: NCI/ADR-RES ovarian
[35] = test system: MCF7 breast
[36] = test system: MALME-3M melanoma
[37] = test system: T-47D breast
[38] = test system: CCRF-CEM leukemia
[39] = test system: BT-549 breast
[40] = test system: M14 melanoma
[41] = test system: SF-268 CNS
[42] = test system: SNB-19 CNS
[43] = test system: A549 NSCLC
[44] = test system: SR leukemia
[45] = test system: SK-OV-3 ovarian
[46] = test system: SW-620 colon
[47] = test system: SF-539 CNS
[48] = test system: HCT-15 colon
[49] = test system: SK-MEL-28 melanoma
[50] = test system: RXF 393 renal
[51] = test system: SK-MEL-5 melanoma
[52] = test system: SN12C renal
[53] = test system: OVCAR-4 ovarian
[54] = test system: EKVX NSCLC
[55] = test system: OVCAR-5 ovarian
[56] = test system: OVCAR-8 ovarian
[57] = test system: K-562 leukemia
[58] = test system: SNB-75 CNS

## COc1cc(C=O)cc(/C=N/N=C/c2ccccc2O)c1O
[1]
  TGI: 67.3 µM
[2]
  TGI: 45.3 µM
[3]
  TGI: 58.6 µM
[4]
  TGI: > 100 µM
[5]
  TGI: > 100 µM
[6]
  TGI: 50.6 µM
[7]
  TGI: > 100 µM
[8]
  TGI: 47 µM
[9]
  TGI: > 100 µM
[10]
  TGI: 49 µM
[11]
  TGI: > 100 µM
[12]
  TGI: 0.0201 µM
[13]
  TGI: > 100 µM
[14]
  TGI: 65.9 µM
[15]
  TGI: 10.3 µM
[16]
  TGI: > 100 µM
[17]
  TGI: > 100 µM
[18]
  TGI: 67.4 µM
[19]
  TGI: 76.4 µM
[20]
  TGI: 8.16 µM
[21]
  TGI: > 100 µM
[22]
  TGI: 54.5 µM
[23]
  TGI: > 100 µM
[24]
  TGI: 85.9 µM
[25]
  TGI: 54 µM
[26]
  TGI: 99.1 µM
[27]
  TGI: > 100 µM
[28]
  TGI: 82.9 µM
[29]
  TGI: > 100 µM
[30]
  TGI: 2.05 µM
[31]
  TGI: > 100 µM
[32]
  TGI: 39.8 µM
[33]
  TGI: > 100 µM
[34]
  TGI: > 100 µM
[35]
  TGI: > 100 µM
[36]
  TGI: 18.1 µM
[37]
  TGI: 28.2 µM
[38]
  TGI: 70.3 µM
[39]
  TGI: 52.6 µM
[40]
  TGI: 56.8 µM
[41]
  TGI: > 100 µM
[42]
  TGI: > 100 µM
[43]
  TGI: > 100 µM
[44]
  TGI: 51.2 µM
[45]
  TGI: 59.7 µM
[46]
  TGI: > 100 µM
[47]
  TGI: 34.2 µM
[48]
  TGI: > 100 µM
[49]
  TGI: 73.8 µM
[50]
  TGI: > 100 µM
[51]
  TGI: > 100 µM
[52]
  TGI: 64.4 µM
[53]
  TGI: > 100 µM

## CN(C)C=Nc1ccc2[nH]c3ccccc3c2c1
[1]
  TGI: > 100 µM
[2]
  TGI: 60.4 µM
[3]
  TGI: 84 µM
[4]
  TGI: 33.9 µM
[6]
  TGI: 70 µM
[7]
  TGI: 68.6 µM
[8]
  TGI: 35.3 µM
[9]
  TGI: 60.1 µM
[10]
  TGI: > 100 µM
[11]
  TGI: 33 µM
[12]
  TGI: 41.7 µM
[13]
  TGI: 43.8 µM
[14]
  TGI: > 100 µM
[15]
  TGI: > 100 µM
[16]
  TGI: 30.3 µM
[17]
  TGI: > 100 µM
[18]
  TGI: > 100 µM
[19]
  TGI: 43.1 µM
[20]
  TGI: > 100 µM
[54]
  TGI: > 100 µM
[21]
  TGI: 57.7 µM
[22]
  TGI: 34.2 µM
[55]
  TGI: 96.5 µM
[24]
  TGI: > 100 µM
[25]
  TGI: > 100 µM
[26]
  TGI: 88.1 µM
[27]
  TGI: > 100 µM
[28]
  TGI: 30.2 µM
[29]
  TGI: 86.2 µM
[30]
  TGI: 83.3 µM
[31]
  TGI: 40.6 µM
[32]
  TGI: 39 µM
[34]
  TGI: > 100 µM
[35]
  TGI: > 100 µM
[36]
  TGI: 54.7 µM
[37]
  TGI: 97.7 µM
[38]
  TGI: > 100 µM
[39]
  TGI: > 100 µM
[40]
  TGI: 29.1 µM
[41]
  TGI: > 100 µM
[42]
  TGI: > 100 µM
[43]
  TGI: > 100 µM
[44]
  TGI: 41 µM
[56]
  TGI: > 100 µM
[45]
  TGI: > 100 µM
[57]
  TGI: 43.4 µM
[47]
  TGI: 50.5 µM
[48]
  TGI: 46.5 µM
[49]
  TGI: 40 µM
[50]
  TGI: 79 µM
[58]
  TGI: > 100 µM
[51]
  TGI: 30.4 µM
[52]
  TGI: > 100 µM
[53]
  TGI: > 100 µM
